Among the data in patent publication US10023592B2, “Bromodomain inhibitors” (Celgene Quanticel Research, Inc., priority 2013, dated 2018) are IC50 values, retold here.

SMILES strings stand for the structures. pIC50: −log10 of the molar value. Some results are limits rather than exact numbers.

Assay [1] relates to Raji, human Burkitts lymphoma cells. Kind of assay: Cell-MTS proliferation assay, Raji. In kind it is cell-based. The following applies: Homo sapiens, 168 hr. The gist of the method: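 Seven-day colorimetric MTS assay; compound at 11 concentrations from 100 μM down to 2.0 nM final, added a day after plating. IC50 from OD490 normalised to DMSO controls.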
The subject of assay [2] is NCI-H460, human non-small cell lung cancer cells. Kind of assay: Cell-MTS proliferation assay, NCI-H460. In kind it is cell-based. The following applies: Homo sapiens, 168 hr. The procedure: (§1) The Cell-MTS assay is a 7-day plate-based colorimetric assay which quantifies the amount of newly generated NADH in the presence or absence of test compound. The NADH level is used for the quantification of cancer cell proliferation.
(§2) Established cancer cell lines with a variety of driving mutations were obtained from American Type Culture Collection (ATCC) and routinely passaged according to ATCC protocols. For routine assay, these cells were seeded at densities which enabled ˜90% confluence after 7 days of culture. Raji, human Burkitts lymphoma cells, (cMYC) were seeded at 15,000 cells per 96-well. HL-60, human proleukemia cells, (NRAS, p16, p53, c-Myc amplified) were seeded at 5,000 cells per 96-well. NCI-H460, human non-small cell lung cancer cells, (KRAS, PIK3CA, STLK11, p16) were seeded at 3,000 cells per 96-well. 24 hr after plating, cells received an 11-point dilution of test compound with final concentration ranges from 100 μM to 2.0 nM. […] At the end of this incubation period, 80 μL of media is removed and 20 μL of CellTiter 96® AQueous Non-Radioactive Cell Proliferation Assay soln (Promega) was added. The cells were incubated until the OD490 was >0.6. IC50 values were calculated using the IDBS XLfit software package and include background subtracted OD490 values and normalization to DMSO controls. Cellular proliferation IC50 values were uploaded and archived using the Chem Biography Platform.

The next assay deals with BRD4(BD1) (Homo sapiens (Human), UniProt O60885). Kind of assay: In vitro enzyme inhibition assay (BRD4 AlphaScreen). In kind it is binding. An outline of the steps:
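AlphaScreen proximity readout, using streptavidin donor and Ni-chelate acceptor beads at 5 μg/mL final, monitors biotin-H4 tetraacetylated peptide interaction with purified His-tagged BRD4.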

Assay [3] concerns HL-60, human proleukemia cells. Kind of assay: Cell-MTS proliferation assay, HL-60. The following applies: Homo sapiens, 168 hr. In kind it is cell-based. The procedure:
as §1, §2

Setting [4] is: NCI-H460, Cell-MTS proliferation.
Where [5] appears, read: in vitro enzyme inhibition assay.
Where [6] appears, read: Cell-MTS proliferation, Raji cells.
Setting [7] is: Cell-MTS proliferation, NCI-H460 cells.
The mark [8] stands for this setting: Cell-MTS proliferation, HL-60 cells.
Setting [9] is: Raji, Cell-MTS, class symbols A/B/C.
Where [10] appears, read: NCI-H460, Cell-MTS, class symbols A/B/C.
Setting [11] is: HL-60, Cell-MTS, class symbols A/B/C.

As to `Cc1cccc(C)c1COc1cc(-c2cc(C)c(=O)n(C)c2)cc(S(C)(=O)=O)c1` [Example 331, 5-[3-[(2,6-dimethylphenyl)methoxy]-5-methylsulfonylphenyl]-1,3-dimethylpyridin-2-one], the pIC50 in assay [1] (Raji, Cell-MTS proliferation) is 5.30 to 6.30; in assay [2] (setting [4]), less than 5.30; against BRD4(BD1) (setting [5]), more than 6.30; in assay [3] (HL-60, Cell-MTS proliferation) it was more than 6.30.
`CCS(=O)(=O)c1ccc(OCC#CC2CC2)c(-c2cc(OC)c(=O)n(C)c2)c1` [Example 391, 5-[2-(3-cyclopropylprop-2-ynoxy)-5-ethylsulfonylphenyl]-3-methoxy-1-methylpyridin-2-one]: the negative logarithm of the IC50 (pIC50) in assay [1] (setting [6]) was 5.30 to 6.30; in assay [2] (setting [7]), less than 5.30; against BRD4(BD1) (setting [5]), more than 6.30; in assay [3] (setting [8]), more than 6.30.
Turning to `Cn1cc(-c2cc(CS(C)(=O)=O)ccc2OCC(F)(F)F)c2ccoc2c1=O` [Example 258, 6-methyl-4-[5-(methylsulfonylmethyl)-2-(2,2,2-trifluoroethoxy)phenyl]furo[2,3-c]pyridin-7-one], the pIC50 is 5.30 to 6.30 in assay [1] (Raji, Cell-MTS proliferation); 5.30 to 6.30 in assay [2] (setting [4]); more than 6.30 against BRD4(BD1) (setting [5]); more than 6.30 in assay [3] (HL-60, Cell-MTS proliferation).
Consider `CCCCc1cnc(NS(=O)(=O)CC)nc1-c1cn(C)c(=O)c2ccccc12` [Example 309, N-[5-butyl-4-(2-methyl-1-oxoisoquinolin-4-yl)pyrimidin-2-yl] ethanesulfonamide], for which the negative-log IC50 (pIC50) in assay [1] (Raji, Cell-MTS proliferation) was more than 6.30; in assay [2] (setting [4]) it was less than 5.30; on BRD4(BD1) (setting [5]), more than 6.30; in assay [3] (HL-60, Cell-MTS proliferation) it was more than 6.30.
With `CCS(=O)(=O)Cc1ccc(Oc2ccc(F)cc2F)c(-c2cc(OC(F)F)c(=O)n(C)c2)c1` [Example 291, 3-(difluoromethoxy)-5-[2-(2,4-difluorophenoxy)-5-(ethylsulfonylmethyl)phenyl]-1-methylpyridin-2-one], the negative-log IC50 (pIC50) in assay [1] (Raji, Cell-MTS proliferation) is more than 6.30; in assay [2] (setting [4]) it was less than 5.30; at BRD4(BD1) (setting [5]), more than 6.30; in assay [3] (HL-60, Cell-MTS proliferation), more than 6.30.
`Cn1cc(-c2cn(CS(C)(=O)=O)c(=O)cc2OCC2CC2)ccc1=O` [Example 381, 4-(cyclopropylmethoxy)-5-(1-methyl-6-oxopyridin-3-yl)-1-(methylsulfonylmethyl)pyridin-2-one]: the pIC50 in assay [1] (setting [6]) was less than 5.30; in assay [2] (setting [7]) it was less than 5.30; against BRD4(BD1) (setting [5]) it was more than 6.30; in assay [3] (setting [8]) it was 5.30 to 6.30.
Turning to `Cc1cc(-c2nc(S(C)(=O)=O)ncc2Oc2ccc(F)cc2F)cn(C)c1=O` [Example 149, 5-[5-(2,4-difluorophenoxy)-2-methylsulfonylpyrimidin-4-yl]-1,3-dimethylpyridin-2-one], the negative-log IC50 (pIC50) is less than 5.30 in assay [1] (Raji, Cell-MTS proliferation); less than 5.30 in assay [2] (setting [4]); 5.30 to 6.30 on BRD4(BD1) (setting [5]); less than 5.30 in assay [3] (HL-60, Cell-MTS proliferation).
Consider `CCS(=O)(=O)Nc1ccc(Oc2ccc(F)cc2F)c(-c2cn(C)c(=O)c3nc(C)oc23)c1` [Example 241, N-[4-(2,4-difluorophenoxy)-3-(2,5-dimethyl-4-oxo-[1,3]oxazolo[4,5-c]pyridin-7-yl)phenyl]ethanesulfonamide], for which the negative logarithm of the IC50 (pIC50) was more than 6.30 in assay [1] (Raji, Cell-MTS proliferation); less than 5.30 in assay [2] (setting [4]); more than 6.30 on BRD4(BD1) (setting [5]); more than 6.30 in assay [3] (HL-60, Cell-MTS proliferation).
Take `Cn1cc(-c2cc(NS(C)(=O)=O)c(F)cc2OCC2CC2)c2c(c1=O)CCCC2` [Example 218, N-[4-(cyclopropylmethoxy)-2-fluoro-5-(2-methyl-1-oxo-5,6,7,8-tetrahydroisoquinolin-4-yl)phenyl]methanesulfonamide]: the pIC50 was 5.30 to 6.30 in assay [1] (Raji, Cell-MTS proliferation); less than 5.30 in assay [2] (setting [4]); more than 6.30 on BRD4(BD1) (setting [5]); more than 6.30 in assay [3] (HL-60, Cell-MTS proliferation).
For the molecule `CCS(=O)(=O)Nc1ccc(Oc2ccc(F)cc2F)c(-c2cn(C)c(=O)c3cncn23)c1` [Example 129, N-[4-(2,4-difluorophenoxy)-3-(7-methyl-8-oxoimidazo[1,5-a]pyrazin-5-yl)phenyl]ethanesulfonamide], the pIC50 in assay [1] (setting [9]) was more than 6.30; in assay [2] (setting [10]), less than 5.30; at BRD4(BD1) (class symbols A/B/C), more than 6.30; in assay [3] (setting [11]), more than 6.30.
With `Cn1cc(-c2nc(NS(C)(=O)=O)ncc2OCC2CC2)c2ccccc2c1=O` [Example 152, N-[5-(cyclopropylmethoxy)-4-(2-methyl-1-oxoisoquinolin-4-yl)pyrimidin-2-yl]methanesulfonamide], the pIC50 in assay [1] (Raji, Cell-MTS proliferation) is more than 6.30; in assay [2] (setting [4]), less than 5.30; against BRD4(BD1) (setting [5]) it was more than 6.30; in assay [3] (HL-60, Cell-MTS proliferation) it was more than 6.30.
With `CCS(=O)(=O)c1ccc(OCC2CC2)c(-c2cn(C)c(=O)c3ccccc23)c1` [Example 135, 4-[2-(cyclopropylmethoxy)-5-ethylsulfonylphenyl]-2-methylisoquinolin-1-one], the pIC50 is more than 6.30 in assay [1] (setting [9]), 5.30 to 6.30 in assay [2] (setting [10]), more than 6.30 against BRD4(BD1) (class symbols A/B/C) and more than 6.30 in assay [3] (setting [11]).
Regarding `CCOc1sc(S(=O)(=O)CC)cc1-c1cn(C)c(=O)c2ccccc12` [Example 204, 4-(2-ethoxy-5-ethylsulfonylthiophen-3-yl)-2-methylisoquinolin-1-one], the pIC50 in assay [1] (Raji, Cell-MTS proliferation) is 5.30 to 6.30; in assay [2] (setting [4]), less than 5.30; against BRD4(BD1) (setting [5]), more than 6.30; in assay [3] (HL-60, Cell-MTS proliferation), 5.30 to 6.30.
On to `Cn1cc(-c2cc(S(C)(=O)=O)ccc2O[C@H]2CC[C@H](N)CC2)c2ccccc2c1=O` [Example 182, 4-[2-(trans-4-aminocyclohexyl)oxy-5-methylsulfonylphenyl]-2-methylisoquinolin-1-one], for which the pIC50 was more than 6.30 in assay [1] (Raji, Cell-MTS proliferation); less than 5.30 in assay [2] (setting [4]); more than 6.30 against BRD4(BD1) (setting [5]); more than 6.30 in assay [3] (HL-60, Cell-MTS proliferation).
`Cc1cc(-c2cc(OCCC3CC3)cc(S(C)(=O)=O)c2)cn(C)c1=O` [Example 327, 5-[3-(2-cyclopropylethoxy)-5-methylsulfonylphenyl]-1,3-dimethylpyridin-2-one]: the pIC50 was 5.30 to 6.30 in assay [1] (Raji, Cell-MTS proliferation); less than 5.30 in assay [2] (setting [4]); more than 6.30 on BRD4(BD1) (setting [5]); 5.30 to 6.30 in assay [3] (HL-60, Cell-MTS proliferation).
With `CCS(=O)(=O)Nc1ccc(Oc2ccc(F)cc2F)c(-c2cc(SC)c(=O)n(C)c2)c1` [Example 402, N-[4-(2,4-difluorophenoxy)-3-(1-methyl-5-methylsulfanyl-6-oxopyridin-3-yl)phenyl]ethanesulfonamide], the negative logarithm of the IC50 (pIC50) in assay [1] (setting [6]) is more than 6.30; in assay [2] (setting [7]) it was less than 5.30; against BRD4(BD1) (setting [5]), more than 6.30; in assay [3] (setting [8]) it was more than 6.30.
With `C#Cc1cc(-c2cc(NS(=O)(=O)CC)ccc2Oc2ccc(F)cc2F)cn(C)c1=O` [Example 283, N-[4-(2,4-difluorophenoxy)-3-(5-ethynyl-1-methyl-6-oxopyridin-3-yl)phenyl]ethanesulfonamide], the pIC50 in assay [1] (Raji, Cell-MTS proliferation) was 5.30 to 6.30; in assay [2] (setting [4]) it was less than 5.30; at BRD4(BD1) (setting [5]) it was more than 6.30; in assay [3] (HL-60, Cell-MTS proliferation) it was more than 6.30.
As for `Cc1cc(-c2cn(CS(C)(=O)=O)c(=O)cc2Oc2ccc(F)cc2F)cn(CC2CC2)c1=O` [Example 250], the pIC50 is 5.30 to 6.30 in assay [1] (Raji, Cell-MTS proliferation); less than 5.30 in assay [2] (setting [4]); more than 6.30 in assay [3] (HL-60, Cell-MTS proliferation).
Taken in the same sequence, the figures for `Cn1cc(-c2cc(OS(N)(=O)=O)ccc2OCC2CC2)c2ccccc2c1=O` [Example 214, [4-(cyclopropylmethoxy)-3-(2-methyl-1-oxoisoquinolin-4-yl)phenyl]sulfamate] were more than 6.30, less than 5.30 and more than 6.30.
